The target of one experiment is HDAC1 (Homo sapiens (Human), UniProt Q13547). Conditions: read-out: HDAC1 IC50.
Another experiment addresses HDAC8 (Homo sapiens (Human), UniProt Q9BY41). The note with it: read-out: HDAC8 IC50.

HDAC1, sequence (Q13547 whole entry): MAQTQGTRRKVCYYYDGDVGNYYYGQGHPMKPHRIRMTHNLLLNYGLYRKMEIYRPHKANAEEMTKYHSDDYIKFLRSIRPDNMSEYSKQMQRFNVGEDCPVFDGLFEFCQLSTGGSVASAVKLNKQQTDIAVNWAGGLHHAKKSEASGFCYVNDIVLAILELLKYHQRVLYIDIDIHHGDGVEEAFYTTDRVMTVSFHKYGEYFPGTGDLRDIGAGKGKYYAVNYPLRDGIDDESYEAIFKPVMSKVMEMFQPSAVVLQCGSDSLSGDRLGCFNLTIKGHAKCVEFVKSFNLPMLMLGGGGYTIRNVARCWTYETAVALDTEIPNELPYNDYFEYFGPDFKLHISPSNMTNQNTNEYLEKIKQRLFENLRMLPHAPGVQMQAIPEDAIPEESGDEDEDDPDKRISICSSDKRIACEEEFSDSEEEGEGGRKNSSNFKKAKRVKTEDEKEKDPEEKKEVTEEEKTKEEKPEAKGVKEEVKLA
HDAC8, sequence (Q9BY41 whole entry): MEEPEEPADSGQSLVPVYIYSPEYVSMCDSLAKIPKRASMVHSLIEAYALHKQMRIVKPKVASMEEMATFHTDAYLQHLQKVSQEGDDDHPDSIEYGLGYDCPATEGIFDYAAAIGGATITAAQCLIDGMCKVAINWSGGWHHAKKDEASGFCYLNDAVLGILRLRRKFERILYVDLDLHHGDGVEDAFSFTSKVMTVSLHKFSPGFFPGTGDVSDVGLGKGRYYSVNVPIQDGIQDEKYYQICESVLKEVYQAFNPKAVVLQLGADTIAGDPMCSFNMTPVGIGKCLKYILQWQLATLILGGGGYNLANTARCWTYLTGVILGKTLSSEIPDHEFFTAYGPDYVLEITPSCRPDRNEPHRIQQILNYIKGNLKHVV

Broadly, the IC50 is the midpoint of a concentration-inhibition curve. As to `O=C([C@@H]1CCC(=O)N1c1cc(F)c(-c2noc(C(F)(F)F)n2)cc1F)N1CCC1` [Example 341, (5S)-5-(azetidin-1-ylcarbonyl)-1-{2,5-difluoro-4-[5-(trifluoromethyl)-1,2,4-oxadiazol-3-yl]phenyl}pyrrolidin-2-one], the IC50 on HDAC1 worked out at 41 µM; on HDAC8, 26 µM.

Take `CC1(C)CCCN1C(=O)[C@@H]1CCC(=O)N1c1ccc(-c2noc(C(F)(F)F)n2)c(F)c1` [Example 342, (5S)-5-[(2,2-dimethylpyrrolidin-1-yl)carbonyl]-1-{3-fluoro-4-[5-(trifluoromethyl)-1,2,4-oxadiazol-3-yl]phenyl}pyrrolidin-2-one]: the IC50 on HDAC1 was found to be 45 µM; at HDAC8 it was 25 µM.

Regarding `Cc1cccc(N2CCC(NCc3ccc(-c4noc(C(F)(F)F)n4)cc3)CC2)c1` [Example 349, 1-(3-methylphenyl)-N-({4-[5-(trifluoromethyl)-1,2,4-oxadiazol-3-yl]phenyl}methyl)piperidin-4-amine], the half-inhibitory concentration (IC50) on HDAC1 was found to be 0.73 µM; at HDAC8, 1.4 µM.

With `CN1Cc2ccc(NCc3ccc(-c4noc(C(F)(F)F)n4)cn3)cc2C1=O` [Example 356, 2-methyl-6-[({5-[5-(trifluoromethyl)-1,2,4-oxadiazol-3-yl]pyridin-2-yl}methyl)amino]-2,3-dihydro-1H-isoindol-1-one], the figures for the IC50 on HDAC1 and on HDAC8 were 0.28 µM and 0.52 µM, respectively.

As for `FC(F)(F)c1nc(-c2ccc(CNc3ccc4nccn4c3)nc2)no1` [Example 357, N-({5-[5-(trifluoromethyl)-1,2,4-oxadiazol-3-yl]pyridin-2-yl}methyl)imidazo[1,2-a]pyridin-6-amine], the IC50 was 0.21 µM on HDAC1 and 0.96 µM on HDAC8.

As for `Cn1ccc(NCc2ccc(-c3noc(C(F)(F)F)n3)cn2)cc1=O` [Example 358, 1-methyl-4-[({5-[5-(trifluoromethyl)-1,2,4-oxadiazol-3-yl]pyridin-2-yl}methyl)amino]pyridin-2(1H)-one], the values for the IC50 at HDAC1 and at HDAC8 were 0.89 µM and 2.4 µM, respectively.

Take `Cc1ccc(NCc2ccc(-c3noc(C(F)(F)F)n3)cn2)cn1` [Example 359, 6-methyl-N-({5-[5-(trifluoromethyl)-1,2,4-oxadiazol-3-yl]pyridin-2-yl}methyl)pyridin-3-amine]: the IC50 came out at 0.43 µM on HDAC1 and 1.8 µM on HDAC8.

With `OCc1cc(NCc2ccc(-c3noc(C(F)(F)F)n3)cn2)ccc1F` [Example 361, {2-fluoro-5-[({5-[5-(trifluoromethyl)-1,2,4-oxadiazol-3-yl]pyridin-2-yl}methyl)amino]phenyl}methanol], the IC50 on HDAC1 was 0.52 µM; at HDAC8 it was 1.6 µM.

Take `Cc1ccc(NCc2ccc(-c3noc(C(F)(F)F)n3)cn2)nn1` [Example 362, 6-methyl-N-({5-[5-(trifluoromethyl)-1,2,4-oxadiazol-3-yl]pyridin-2-yl}methyl)pyridazin-3-amine]: the figures for the IC50 at HDAC1 and on HDAC8 were 1.4 µM and 2.8 µM, respectively.

Consider `COc1ccc(NCc2ccc(-c3noc(C(F)(F)F)n3)cn2)cn1` [Example 363, 6-methoxy-N-({5-[5-(trifluoromethyl)-1,2,4-oxadiazol-3-yl]pyridin-2-yl}methyl)pyridin-3-amine], for which the IC50 was determined as 0.52 µM at HDAC1 and 3.4 µM on HDAC8.

As for `FC(F)(F)c1nc(-c2ccc(CNc3cc4ccccn4n3)nc2)no1` [Example 365, N-({5-[5-(trifluoromethyl)-1,2,4-oxadiazol-3-yl]pyridin-2-yl}methyl)pyrazolo[1,5-a]pyridin-2-amine], the IC50 is 1.2 µM on HDAC1 and 1.8 µM on HDAC8.

For `Cn1ncc(NCc2ccc(-c3noc(C(F)(F)F)n3)cn2)n1` [Example 366, 2-methyl-N-({5-[5-(trifluoromethyl)-1,2,4-oxadiazol-3-yl]pyridin-2-yl}methyl)-2H-1,2,3-triazol-4-amine], the IC50 on HDAC1 amounted to 1.3 µM; on HDAC8, 2.7 µM.

`OCc1ccnc(NCc2ccc(-c3noc(C(F)(F)F)n3)cn2)c1` [Example 367, {2-[({5-[5-(trifluoromethyl)-1,2,4-oxadiazol-3-yl]pyridin-2-yl}methyl)amino]pyridin-4-yl}methanol]: the results for the IC50 at HDAC1 and on HDAC8 were 0.82 µM and 0.87 µM, respectively.

Turning to `FC(F)(F)c1nc(-c2ccc(CNc3cnccn3)nc2)no1` [Example 368, N-({5-[5-(trifluoromethyl)-1,2,4-oxadiazol-3-yl]pyridin-2-yl}methyl)pyrazin-2-amine], the IC50 on HDAC1 is 1 µM; at HDAC8 it was 0.89 µM.

Regarding `FC(F)(F)c1nc(-c2ccc(CNc3cncnc3)nc2)no1` [Example 369, N-({5-[5-(trifluoromethyl)-1,2,4-oxadiazol-3-yl]pyridin-2-yl}methyl)pyrimidin-5-amine], the IC50 at HDAC1 stood at 0.93 µM; at HDAC8, 0.96 µM.

As to `FC(F)(F)c1nc(-c2ccc(CNc3ccc4ccncc4c3)nc2)no1` [Example 370, N-({5-[5-(trifluoromethyl)-1,2,4-oxadiazol-3-yl]pyridin-2-yl}methyl)isoquinolin-7-amine], the IC50 was determined as 0.068 µM at HDAC1 and 0.86 µM at HDAC8.

`O=C1NC(=O)[C@]2(CC[C@H](NCc3ccc(-c4noc(C(F)(F)F)n4)cn3)CC2)N1` [Example 376, (5s,8s)-8-[({5-[5-(trifluoromethyl)-1,2,4-oxadiazol-3-yl]pyridin-2-yl}methyl)amino]-1,3-diazaspiro[4.5]decane-2,4-dione]: the IC50 at HDAC1 was determined as 3.4 µM; on HDAC8, 3.9 µM.

In the case of `FC(F)(F)c1nc(-c2ccc(CNC3Cc4ccccc4C3)nc2)no1` [Example 378, N-({5-[5-(trifluoromethyl)-1,2,4-oxadiazol-3-yl]pyridin-2-yl}methyl)-2,3-dihydro-1H-inden-2-amine], the IC50 at HDAC1 amounted to 0.63 µM; on HDAC8, 4.2 µM.

On to `FC(F)(F)c1nc(-c2ccc(CNC3CCN(c4ccccn4)CC3)nc2)no1` [Example 379, 1-(pyridin-2-yl)-N-({5-[5-(trifluoromethyl)-1,2,4-oxadiazol-3-yl]pyridin-2-yl}methyl)piperidin-4-amine], for which the IC50 was found to be 1.9 µM at HDAC1 and 7.7 µM on HDAC8.

On to `Cc1cc(NCc2ccc(-c3noc(C(F)(F)F)n3)cn2)on1` [Example 380, 3-methyl-N-({5-[5-(trifluoromethyl)-1,2,4-oxadiazol-3-yl]pyridin-2-yl}methyl)-1,2-oxazol-5-amine], for which the IC50 on HDAC1 worked out at 0.93 µM; on HDAC8, 1.4 µM.

`FC(F)(F)c1nc(-c2ccc(CNc3ccccn3)cc2)no1` [Example 382, N-{4-[5-(trifluoromethyl)-1,2,4-oxadiazol-3-yl]benzyl}pyridin-2-amine]: the IC50 on HDAC1 was 1.6 µM; on HDAC8, 2.1 µM.

Turning to `FC(F)(F)c1nc(-c2ccc(CNc3cccnc3)cc2)no1` [Example 383, N-{4-[5-(trifluoromethyl)-1,2,4-oxadiazol-3-yl]benzyl}pyridin-3-amine], the values for the IC50 on HDAC1 and on HDAC8 were 1.7 µM and 3.1 µM, respectively.

Regarding `FC(F)(F)c1nc(-c2ccc(CNc3ncccn3)cc2)no1` [Example 386, N-{4-[5-(trifluoromethyl)-1,2,4-oxadiazol-3-yl]benzyl}pyrimidin-2-amine], the IC50 at HDAC1 turned out to be 5.3 µM; at HDAC8, 3.9 µM.

Take `Cn1nccc1CCOc1cc(-c2noc(C(F)(F)F)n2)ccn1` [Example 387, 2-[2-(1-methyl-1H-pyrazol-5-yl)ethoxy]-4-[5-(trifluoromethyl)-1,2,4-oxadiazol-3-yl]pyridine]: the IC50 on HDAC1 was 3.1 µM; at HDAC8, 0.88 µM.

Take `O=c1ccc2ccc(C(F)(F)F)cc2n1Cc1ccc(-c2noc(C(F)(F)F)n2)cn1` [Example 388, 7-(trifluoromethyl)-1-({5-[5-(trifluoromethyl)-1,2,4-oxadiazol-3-yl]pyridin-2-yl}methyl)quinolin-2(1H)-one]: the IC50 was determined as 0.28 µM at HDAC1 and 4.9 µM on HDAC8.

For `CC(C)(C(=O)N(Cc1ccc(-c2noc(C(F)(F)F)n2)cn1)c1cccc(F)c1)n1cccn1` [Example 391, N-(3-fluorophenyl)-2-methyl-2-(1H-pyrazol-1-yl)-N-({5-[5-(trifluoromethyl)-1,2,4-oxadiazol-3-yl]pyridin-2-yl}methyl)propanamide], the IC50 on HDAC1 came to 1.4 µM; at HDAC8, 7.4 µM.

Turning to `CC(C)(C(=O)N(Cc1ccc(-c2noc(C(F)(F)F)n2)cn1)c1cccc(F)c1)n1cncn1` [Example 392, N-(3-fluorophenyl)-2-methyl-2-(1H-1,2,4-triazol-1-yl)-N-({5-[5-(trifluoromethyl)-1,2,4-oxadiazol-3-yl]pyridin-2-yl}methyl)propanamide], the IC50 on HDAC1 amounted to 0.48 µM; at HDAC8 it was 3.1 µM.

With `Cc1n[nH]c(CC(=O)N(Cc2ccc(-c3noc(C(F)(F)F)n3)cn2)c2cccc(F)c2)n1` [Example 393, N-(3-fluorophenyl)-2-(3-methyl-1H-1,2,4-triazol-5-yl)-N-({5-[5-(trifluoromethyl)-1,2,4-oxadiazol-3-yl]pyridin-2-yl}methyl)acetamide], the figures for the IC50 at HDAC1 and at HDAC8 were 0.41 µM and 3.4 µM, respectively.

For the compound `Cc1ncc(CC(=O)N(Cc2ccc(-c3noc(C(F)(F)F)n3)cn2)c2cccc(F)c2)s1` [Example 394, N-(3-fluorophenyl)-2-(2-methyl-1,3-thiazol-5-yl)-N-({5-[5-(trifluoromethyl)-1,2,4-oxadiazol-3-yl]pyridin-2-yl}methyl)acetamide], the IC50 at HDAC1 turned out to be 0.73 µM; at HDAC8 it was 2.4 µM.

In the case of `Cc1nnc(CC(=O)N(Cc2ccc(-c3noc(C(F)(F)F)n3)cn2)c2cccc(F)c2)s1` [Example 395, N-(3-fluorophenyl)-2-(5-methyl-1,3,4-thiadiazol-2-yl)-N-({5-[5-(trifluoromethyl)-1,2,4-oxadiazol-3-yl]pyridin-2-yl}methyl)acetamide], the IC50 amounted to 0.33 µM at HDAC1 and 1.3 µM at HDAC8.

As to `Cc1noc(CC(=O)N(Cc2ccc(-c3noc(C(F)(F)F)n3)cn2)c2cccc(F)c2)n1` [Example 396, N-(3-fluorophenyl)-2-(3-methyl-1,2,4-oxadiazol-5-yl)-N-({5-[5-(trifluoromethyl)-1,2,4-oxadiazol-3-yl]pyridin-2-yl}methyl)acetamide], the half-maximal inhibitory concentration (IC50) on HDAC1 was 0.38 µM; on HDAC8, 1 µM.

The values are drawn from patent publication US11066396B2 (priority 2016, dated 2021).
